{"source": "patent US8227406B2", "about": "“Antimicrobial peptides” (Dermagen AB, priority 2006, dated 2012)", "key": {"[1]": {"test_system": "Candida albicans ATCC90028", "test": "Radial diffusion assay (RDA), C. albicans", "format": "cell-based", "design": "unit not given here", "conditions": "Table 1a; RDA clear zone", "method": "Peptides. Peptides were from Sigma-Genosys, generated by a peptide synthesis platform (PEPscreen®, Custom Peptide Libraries, SigmaGenosys). Yield was ˜1-6 mg, and peptide length 20 amino acids. MALDI-ToF Mass Spectrometry was perfomed on these peptides. Average Crude Purity of 20mers was ˜60%. Peptides were supplied lyophilized and in a 96-well tube rack. Prior to biological testing the PEPscreen peptides were diluted in dH2O (5 mM stock), and stored at −20 C. This stock solution was used for the subsequent experiments.\nEschericia coli ATCC25922, Staphylococcus aureus ATCC29213, and the fungal isolate Candida albicans ATCC90028 were obtained from the Department of Bacteriology, Lund University Hospital.\nRadial diffusion assays (RDA) were performed essentially as described earlier (Lehrer, R. I., Rosenman, M., Harwig, S. S., Jackson, R. & Eisenhauer, P. (1991) Ultrasensitive assays for endogenous antimicrobial polypeptides, J Immunol Methods. 137, 167-73). Briefly, bacteria (E. coli, S. aureus) or fungi (C. albicans) were grown to midlogarithmic phase in 10 ml of full-strength (3% w/v) trypticase soy broth (TSB) (Becton-Dickinson, Cockeysville, Md.). The microorganisms were washed once with 10 mM Tris, pH 7.4. 4×10^6 bacterial cfu or 1×10^5 fungal cfu was added to 5 ml of the underlay agarose gel, consisting of 0.03% (w/v) TSB, 1% (w/v) low-electroendoosmosistype (Low-EEO) agarose (Sigma, St Louise Mo.) and a final concentration of 0.02% (v/v) Tween 20 (Sigma). The underlay was poured into a Ø 85 mm petri dish. After agarose solidified, 4 mm-diameter wells were punched and 6 μl of test sample was added to each well. Plates were incubated at 37° C. for 3 hours to allow diffusion of the peptides. The underlay gel was then covered with 5 ml of molten overlay (6% TSB and 1% Low-EEO agarose in dH2O). Antimicrobial activity of a peptide is visualized as a clear zone around each well after 18-24 hours of incubation at 37° C. for bacteria and 28° C. for Candida albicans. Other examples of peptides that were screened and found to show an increased effect against the above mentioned microorgansism are listed below. Some of the results are found in table 1c showing the effects against C. albicans, table 1d E. coli and table 1e S. aureus."}, "[2]": {"test_system": "Eschericia coli ATCC25922", "test": "Radial diffusion assay (RDA), E. coli", "format": "cell-based, Escherichia coli", "how_it_was_run": "(§1)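 Peptides (20-mers, crude, 5 mM water stock) applied at 6 μl per well to agarose underlay (0.03% TSB, 0.02% Tween 20) holding 4×10^6 bacterial or 1×10^5 fungal cfu from mid-log cultures washed in 10 mM Tris pH 7.4. After 3 h diffusion at 37 °C and nutrient overlay, clear zones read after 18–24 h (37 °C bacteria, 28 °C C. albicans).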"}, "[3]": {"test_system": "Staphylococcus aureus ATCC29213", "test": "Radial diffusion assay (RDA), S. aureus", "format": "cell-based", "how_it_was_run": "as §1"}, "erythrocytes": {"test_system": "erythrocytes", "test": "Hemolysis assay", "format": "cell-based", "conditions": "% of TritonX-100 induced hemolysis; erythrocytes 1 h at 37° C.; peptides (3-60 μM)", "method": "EDTA-blood was centrifuged at 800 g for 10 min, whereafter plasma and buffy coat were removed. The erythrocytes were washed three times and resuspended in 5% PBS, pH 7.4. The cells were then incubated with end-over-end rotation for 1 h at 37° C. in the presence of peptides (3-60 μM). 2% Triton X-100 (Sigma-Aldrich) served as positive control. The samples were then centrifuged at 800 g for 10 min. The absorbance of hemoglobin release was measured at λ 540 nm and is in the plot expressed as % of TritonX-100 induced hemolysis (Table 1a)."}, "[4]": {"conditions": "Table 1b, 10 mM Tris Hcl (pH 7.4)"}}, "data": [{"smiles": "CC[C@H](C)[C@H](NC(=O)[C@H](CCCCN)NC(=O)[C@H](CCC(=O)O)NC(=O)[C@H](CCCCN)NC(=O)[C@H](CO)NC(=O)[C@H](CCCCN)NC(=O)[C@H](CCCNC(=N)N)NC(=O)[C@H](Cc1ccccc1)NC(=O)[C@H](Cc1ccccc1)NC(=O)[C@H](CC(=O)O)NC(=O)CNC(=O)[C@H](CC(C)C)NC(=O)[C@@H](N)CC(C)C)C(=O)NCC(=O)N[C@@H](CCCCN)C(=O)N[C@@H](CCC(=O)O)C(=O)N[C@@H](Cc1ccccc1)C(=O)N[C@@H](CCCCN)C(=O)N[C@@H](CCCNC(=N)N)C(=O)N[C@H](C(=O)N[C@H](C(=O)N[C@@H](CCC(N)=O)C(=O)N[C@@H](CCCNC(=N)N)C(=O)N[C@H](C(=O)N[C@@H](CCCCN)C(=O)N[C@@H](CC(=O)O)C(=O)N[C@@H](Cc1ccccc1)C(=O)N[C@@H](CC(C)C)C(=O)N[C@@H](CCCNC(=N)N)C(=O)N[C@@H](CC(N)=O)C(=O)N[C@@H](CC(C)C)C(=O)N[C@H](C(=O)N1CCC[C@H]1C(=O)N[C@@H](CCCNC(=N)N)C(=O)N[C@H](C(=O)N[C@@H](CCC(=O)O)C(=O)N[C@@H](CO)C(=O)O)[C@@H](C)O)C(C)C)[C@@H](C)CC)C(C)C)[C@@H](C)CC", "note": "[LL-37, reference compound]", "values": [{"measurement": "Candida albicans ATCC 90028 Mean", "setting": "[1]", "result": 4.890}, {"measurement": "E.coli ATCC 25922 Mean, Ingrowth* counted", "setting": "[2]; Table 1a, RDA clear zone, ingrowth counted", "result": 6.53}, {"measurement": "E.coli ATCC 25922 Mean, Ingrowth not counted", "setting": "[2]; Table 1a, RDA clear zone, ingrowth not counted", "result": 0.653}, {"measurement": "RDA values (mm) E. coli ATCC 25922", "setting": "[2]; [4]", "result": 7.55, "unit": "mm"}, {"measurement": "S. aureus ATCC 29213 Mean", "setting": "[3]; Table 1a, RDA clear zone", "result": 4.660}, {"measurement": "RDA values (mm) S. aureus ATCC 29213", "setting": "[3]; [4]", "result": 3.23, "unit": "mm"}, {"measurement": "Hemolysis (%) Mean", "setting": "erythrocytes", "result": 21.464, "unit": "%"}]}]}
